For four molecules, IC50 results are on record in ChEMBL document CHEMBL4834448, “Toward the assembly and characterization of an encoded library hit confirmation platform: Bead-Assisted Ligand Isolation Mass Spectrometry (BALI-MS)” (Bioorg Med Chem, 2021).

For this test, the target named is Bromodomain-containing protein 4 (Homo sapiens, UniProt O60885). Description: Displacement of Alexafluor 647-conjugated PFI-1 from N-terminal-His6-tagged human BRD4 BD1 domain (44 to 170 residues) incubated for 30 mins by fluorescence polarization assay.

In the case of `CN(C[C@H]1CC[C@H](N)CC1)c1ccc2nncn2n1`, the 50% inhibitory concentration (IC50) is 11800 nM.
For the molecule `Cc1nnc2ccc(N(C)CCC3CCNCC3)nn12`, the IC50 worked out at 2420 nM.
To `CNCCN(C)c1ccc2nnc(C)n2n1` belongs more than 30000 nM; to `CCc1nnc2ccc(N(C)C[C@H]3CC[C@H](N)CC3)nn12`, 790 nM.
